In PubChem BioAssay (NCI):
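Exposure lasted 48 hours, with cells grown in 96-well plates and compounds tested at five concentrations. GI50 is the concentration that inhibits growth by half. Definition used: TGI = concentration required for complete inhibition of growth.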

Key:
Experiment in all cases: NCI anticancer screen, dose series, 48 h
[1] = tested on: OVCAR-3 ovarian
[2] = tested on: SNB-19 CNS
[3] = tested on: SK-MEL-5 melanoma
[4] = tested on: 786-0 renal
[5] = tested on: HOP-62 NSCLC
[6] = tested on: RPMI-8226 leukemia
[7] = tested on: A549 NSCLC
[8] = tested on: OVCAR-5 ovarian
[9] = tested on: HS 578T breast
[10] = tested on: IGROV1 ovarian
[11] = tested on: MDA-MB-435
[12] = tested on: SK-MEL-2 melanoma
[13] = tested on: KM12 colon
[14] = tested on: OVCAR-8 ovarian
[15] = tested on: SR leukemia
[16] = tested on: A498 renal
[17] = tested on: HCC-2998 colon
[18] = tested on: NCI/ADR-RES ovarian
[19] = tested on: OVCAR-4 ovarian
[20] = tested on: DU-145 prostate
[21] = tested on: UACC-257 melanoma
[22] = tested on: SF-268 CNS
[23] = tested on: TK-10 renal
[24] = tested on: T-47D breast
[25] = tested on: LOX IMVI melanoma
[26] = tested on: SK-MEL-28 melanoma
[27] = tested on: U251 CNS
[28] = tested on: SF-539 CNS
[29] = tested on: CCRF-CEM leukemia
[30] = tested on: MALME-3M melanoma
[31] = tested on: M14 melanoma
[32] = tested on: NCI-H23 lung
[33] = tested on: MCF7 breast
[34] = tested on: ACHN renal
[35] = tested on: MDA-MB-231 breast
[36] = tested on: UO-31 renal
[37] = tested on: BT-549 breast
[38] = tested on: SK-OV-3 ovarian
[39] = tested on: COLO 205 colon
[40] = tested on: SNB-75 CNS
[41] = tested on: HCT-116 colon
[42] = tested on: HCT-15 colon
[43] = tested on: CAKI-1 renal
[44] = tested on: SW-620 colon
[45] = tested on: HOP-92 NSCLC
[46] = tested on: HT29 colon
[47] = tested on: SN12C renal
[48] = tested on: EKVX NSCLC
[49] = tested on: HL-60(TB) leukemia
[50] = tested on: UACC-62 melanoma
[51] = tested on: NCI-H226 lung
[52] = tested on: NCI-H460 lung
[53] = tested on: NCI-H522 lung
[54] = tested on: K-562 leukemia
[55] = tested on: PC-3 prostate
[56] = tested on: SF-295 CNS
[57] = tested on: MOLT-4 leukemia
[58] = tested on: RXF 393 renal

## CCNC1=CC(=O)c2ncccc2C1=O
[1]
  GI50: 0.807 µM
  TGI: 5.41 µM
[2]
  GI50: 1.59 µM
  TGI: 6.7 µM
[3]
  GI50: 0.298 µM
  TGI: 1.11 µM
[4]
  GI50: 9.09 µM
  TGI: 23.4 µM
[5]
  GI50: 0.583 µM
  TGI: 2.04 µM
[6]
  GI50: 7.08 µM
  TGI: 29.6 µM
[7]
  GI50: 1.2 µM
  TGI: 3.38 µM
[8]
  GI50: 1.79 µM
  TGI: 3.47 µM
[9]
  GI50: 1.69 µM
  TGI: 6.27 µM
[10]
  GI50: 7.91 µM
  TGI: 24.5 µM
[11]
  GI50: 0.4 µM
  TGI: 1.5 µM
[12]
  GI50: 2.36 µM
  TGI: 7.53 µM
[13]
  GI50: 3.25 µM
  TGI: 15.1 µM
[14]
  GI50: 3.04 µM
  TGI: 14.2 µM
[15]
  GI50: 3.71 µM
  TGI: 11 µM
[16]
  GI50: 1.24 µM
  TGI: 2.87 µM
[17]
  GI50: 2.16 µM
  TGI: 5.37 µM
[18]
  GI50: 3.75 µM
  TGI: 28.2 µM
[19]
  GI50: 1.64 µM
  TGI: 8.12 µM
[20]
  GI50: 1.18 µM
  TGI: 2.44 µM
[21]
  GI50: 1.42 µM
  TGI: 3 µM
[22]
  GI50: 3.13 µM
  TGI: 17.3 µM
[23]
  GI50: 15.6 µM
  TGI: 29.7 µM
[24]
  GI50: 4.45 µM
  TGI: 23.1 µM
[25]
  GI50: 1 µM
  TGI: 3.22 µM
[26]
  GI50: 1.71 µM
  TGI: 3.52 µM
[27]
  GI50: 2.49 µM
  TGI: 13.6 µM
[28]
  GI50: 1.89 µM
  TGI: 3.76 µM
[29]
  GI50: 6.14 µM
  TGI: 42.4 µM
[30]
  GI50: 1.03 µM
  TGI: 2.23 µM
[31]
  GI50: 1.11 µM
  TGI: 2.46 µM
[32]
  GI50: 0.504 µM
  TGI: 2.53 µM
[33]
  GI50: 1.17 µM
  TGI: 3.2 µM
[34]
  GI50: 5.9 µM
  TGI: 19.6 µM
[35]
  GI50: 2.66 µM
  TGI: 21.1 µM
[36]
  GI50: 1.76 µM
  TGI: 7.72 µM
[37]
  GI50: 1.54 µM
  TGI: 3.15 µM
[38]
  GI50: 6.92 µM
  TGI: 19.8 µM
[39]
  GI50: 1.63 µM
  TGI: 3.3 µM
[40]
  GI50: 1.19 µM
  TGI: 2.45 µM
[41]
  GI50: 3 µM
  TGI: 9.7 µM
[42]
  GI50: 0.999 µM
  TGI: 3.22 µM
[43]
  GI50: 7.5 µM
  TGI: 21.1 µM
[44]
  GI50: 1.75 µM
  TGI: 4.3 µM
[45]
  GI50: 10.3 µM
  TGI: 25.3 µM
[46]
  GI50: 2.82 µM
  TGI: 6.59 µM
[47]
  GI50: 1.4 µM
  TGI: 2.78 µM
[48]
  GI50: 4.68 µM
  TGI: 18.5 µM
[49]
  GI50: 1.87 µM
  TGI: 7.13 µM
[50]
  GI50: 1.06 µM
  TGI: 2.3 µM
[51]
  GI50: 1.85 µM
  TGI: 4.42 µM
[52]
  GI50: 0.439 µM
  TGI: 2 µM
[53]
  GI50: 1.79 µM
  TGI: 4.23 µM
[54]
  GI50: 2.84 µM
  TGI: 12.5 µM
[55]
  GI50: 2.71 µM
  TGI: 22.8 µM
[56]
  GI50: 1.23 µM
  TGI: 2.56 µM
[57]
  GI50: 2.94 µM
  TGI: 14.3 µM
[58]
  GI50: 5.65 µM
  TGI: 17.9 µM
